Measured values reported in US9186416B2, “Immunoconjugates, compositions for making them, and methods of making and use” (priority 2011, dated 2015).

How the values were obtained:
H226 cell lysates = assay: Dephosphorylation by H226 cell lysates; format: in vitro ADME, human; settings: similar experiment
786-O cell lysate = assay: Dephosphorylation by 786-O cell lysate; format: in vitro ADME, human; settings: 100 μM compound, 786-O lysate 2 mg/mL protein, pH 5.5, 37° C.
Method: 786-O cells, as frozen pellets with an estimated quantity of 10^7 cells per vortexing tube, were resuspended and homogenized in 500 μL of lysis buffer (25 mM NaOAc, 1 mM EDTA, 0.25 M sucrose, 0.1% Triton X-100, pH 5.5). Homogenization involved vortex mixing for 30 sec, followed by a one min cooling on ice. For each tube, three vortex and cooling cycles were performed. Cell samples were then further mixed by shearing in a 19 gauge needle three times.
Following homogenization, the DNA of the cell lysate was hydrolyzed using BENZONASE™ DNAse. Samples were first brought up in 1 mM MgSO4. After mixing, 2 μL of BENZONASE™ DNAse (neat) were added to each vial of lysate (4 μL/mL, v/v, final concentration). Samples were then stored at RT for 15 min and then cooled on ice. For this step, successful DNAse activity was evidenced by appearance of flocculent precipitate. Samples were then spun at maximum speed in a microcentrifuge for 5 min to remove cellular debris. Supernatant was frozen at −70° C. for later use. Protein concentration of the lysate was determined using Pierce BCA Protein Determination methodology (Thermo Scientific).
A 2000 μM stock solution of the compound of formula (Ia) was prepared. Lysate was diluted to 2.1 mg/mL in lysate buffer. For reaction, 5 μL of the compound (Ia) stock was added to 95 μL of lysate. […]

Nc1ccc(C(=O)Nc2ccc3[nH]c(C(=O)N4C[C@@H](CCl)c5c4cc(OP(=O)(O)O)c4ccccc54)cc3c2)cc1 [compound (Ia)]
time to complete dephosphorylation (H226 cell lysates): ≤ 3 h | time to complete dephosphorylation (786-O cell lysate): ≤ 8 h
